The compounds below were run against T1, CCR1 (Homo sapiens, UniProt P32246) (assay: Method B: calcium flux in CCR1 transfected cells (Calcium 4 dye, […] FDSS6000), block of the CCR1/MIP-1α interaction). Conditions: Method B: Calcium 4 dye, MIP-1alpha at EC80.
T1 sequence (P32246 1-355): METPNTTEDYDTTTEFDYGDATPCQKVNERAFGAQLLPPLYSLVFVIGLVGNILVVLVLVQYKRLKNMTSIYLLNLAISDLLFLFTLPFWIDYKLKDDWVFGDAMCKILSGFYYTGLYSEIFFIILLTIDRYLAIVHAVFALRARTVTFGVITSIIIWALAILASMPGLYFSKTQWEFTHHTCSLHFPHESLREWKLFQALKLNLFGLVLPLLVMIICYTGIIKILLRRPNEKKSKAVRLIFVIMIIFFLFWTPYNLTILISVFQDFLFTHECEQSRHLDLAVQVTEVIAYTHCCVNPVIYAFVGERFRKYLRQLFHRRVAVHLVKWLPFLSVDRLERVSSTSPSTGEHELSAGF
Assay type: cell-based
How it was run: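 Non-adherent cells stably expressing CCR1 and G-alpha-16 were loaded with Calcium 4 dye plus probenecid for 1 h at room temperature. Compounds (top 3,000 nM, 4-fold, 10 doses, 1% DMSO) in HBSS/20 mM HEPES pH 7.4 were incubated 30 min at 37 C, then 30 min at room temperature. MIP-1α at EC80 was added and calcium flux read on FDSS6000.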

| Compound | IC50 [nM] |
| --- | --- |
| COC(=O)C[C@H](NC(=O)c1cncc2c1cnn2-c1ccc(F)cc1)c1ccnc(S(C)(=O)=O)c1 [(S)-3-{[1-(4-Fluorophenyl)-1H-pyrazolo[3,4-c]pyridine-4-carbonyl]-amino}-3-(2-methanesulfonyl-pyridin-4-yl)-propionic acid methyl ester] | 4 |
| CCOC(=O)Cn1ccc([C@H](CC)NC(=O)c2cncc3c2cnn3-c2ccc(F)cc2)n1 [[3-((S)-1-{[1-(4-Fluorophenyl)-1H-pyrazolo[3,4-c]pyridine-4-carbonyl]-amino}-propyl)-pyrazol-1-yl]-acetic acid ethyl ester] | 11 |
| CCOC(=O)Cn1cc([C@H](CC)NC(=O)c2cncc3c2cnn3-c2ccc(F)cc2)cn1 [[4-((S)-1-{[1-(4-Fluorophenyl)-1H-pyrazolo[3,4-c]pyridine-4-carbonyl]-amino}-propyl)-pyrazol-1-yl]-acetic acid ethyl ester] | 25 |
| CCOC(=O)CS(=O)(=O)c1cc(CNC(=O)c2cncc3c2cnn3-c2ccc(F)cc2)ccn1 [[4-({[1-(4-Fluorophenyl)-1H-pyrazolo[3,4-c]pyridine-4-carbonyl]-amino}-methyl)-pyridine-2-sulfonyl]-acetic acid ethyl ester] | 4 |
| CCC(NC(=O)c1cncc2c1cnn2-c1ccc(F)cc1)c1nc(C(=O)NCC(=O)OC)c(C)o1 (centres unmarked) [{[2-(1-{[1-(4-Fluorophenyl)-1H-pyrazolo[3,4-c]pyridine-4-carbonyl]-amino}-propyl)-5-methyl-oxazole-4-carbonyl]-amino}-acetic acid methyl ester] | 26 |

These compounds were tested against T1, CCR1 (assay: Method A: calcium flux in CCR1 transfected cells (Fluo-4 NW, FLIPR TETRA), block of the CCR1/MIP-1α interaction). Conditions: Method A: Fluo-4 NW, MIP-1 alpha at EC80.
Assay type: cell-based
Description: Compounds are assessed for the ability to block the interaction of CCR1 and MIP-1α in a functional cellular assay measuring calcium flux in CCR1 transfected cells.
Method A: Non-adherent cells purchased from Chemicon Corporation (HTS005C), stably expressing recombinant CCR1 and G-alpha-16 are grown in RPMI 1640 medium (Mediatech 10-080-CM) supplemented with 10% heat-inactivated FBS, 0.4 mg/mL Geneticin and penicillin/streptomycin. On the day of the assay, the cells are transferred to a beaker and dye-loaded in bulk using a Fluo-4 NW Calcium Assay Kit with probenecid (Invitrogen F36205) at 0.8E6 cells/mL for 1 hour at room temperature. After 1 hour, they are seeded in a 384-well tissue culture-treated plate at a density of 20,000 cells/well. Appropriately diluted test compound is added to the well to achieve a top concentration of 3,000 nM (diluted 4-fold with 10 doses total). The final concentration of DMSO is 1%. The buffer is HBSS (Invitrogen 14025) with 20 mM HEPES at pH 7.4. The cells are allowed to incubate 1 hour in the dark at room temperature. The plates are transferred to the FLIPR TETRA where MIP-1 alpha in 1% BSA is added at the EC80 final concentration. Wells+/−MIP-1 alpha containing diluted DMSO instead of compound serve as the controls. Intracellular calcium flux is recorded on the FLIPR TETRA, using excitation at 470/495 nm and emission at 515/575 nm. Data are analyzed using Activity Base software.

| Compound | IC50 [nM] |
| --- | --- |
| CS(=O)(=O)c1cccc(CNC(=O)c2cncc3c2cnn3-c2ccc(Cl)cc2)c1 [1-(4-Chlorophenyl)-1H-pyrazolo[3,4-c]pyridine-4-carboxylic acid 3-methanesulfonyl-benzylamide] | 7 |
| O=C(NCc1ccc(S(=O)(=O)N2CCC(O)C2)cc1)c1cncc2c1cnn2-c1ccc(Cl)cc1 (centres unmarked) [1-(4-Chlorophenyl)-1H-pyrazolo[3,4-c]pyridine-4-carboxylic acid 4-(3-hydroxy-pyrrolidine-1-sulfonyl)-benzylamide] | 2 |
| CS(=O)(=O)c1ccc(CNC(=O)c2cncc3c2cnn3-c2ccc(Cl)cc2)cn1 [1-(4-Chlorophenyl)-1H-pyrazolo[3,4-c]pyridine-4-carboxylic acid (6-methanesulfonyl-pyridin-3-ylmethyl)-amide] | 34 |
| CCCC(NC(=O)c1cncc2c1cnn2-c1ccc(Cl)cc1)c1ccnc(Br)c1 (centres unmarked) [1-(4-Chlorophenyl)-1H-pyrazolo[3,4-c]pyridine-4-carboxylic acid [1-(2-bromopyridin-4-yl)-butyl]-amide] | 2 |
| CCCC(NC(=O)c1cncc2c1cnn2-c1ccc(Cl)cc1)c1ccnc(S(C)(=O)=O)c1 (centres unmarked) [1-(4-Chlorophenyl)-1H-pyrazolo[3,4-c]pyridine-4-carboxylic acid [1-(2-methanesulfonyl-pyridin-4-yl)-butyl]-amide] | 0.4 |
| CCCC(NC(=O)c1cncc2c1cnn2-c1ccc(Cl)cc1)c1ccc(S(C)(=O)=O)nc1 (centres unmarked) [1-(4-Chlorophenyl)-1H-pyrazolo[3,4-c]pyridine-4-carboxylic acid [1-(6-methanesulfonyl-pyridin-3-yl)-butyl]-amide] | 1 |
| O=C(NCc1ccc(S(=O)(=O)N2CCOCC2)nc1)c1cncc2c1cnn2-c1ccc(Cl)cc1 [1-(4-Chlorophenyl)-1H-pyrazolo[3,4-c]pyridine-4-carboxylic acid [6-(morpholine-4-sulfonyl)-pyridin-3-ylmethyl]-amide] | 3 |
| C[C@H](NC(=O)c1cncc2c1cnn2-c1ccc(Cl)cc1)c1cncc(Br)c1 [1-(4-Chlorophenyl)-1H-pyrazolo[3,4-c]pyridine-4-carboxylic acid [(S)-1-(5-bromopyridin-3-yl)-ethyl]-amide] | 2 |
| CC[C@H](NC(=O)c1cncc2c1cnn2-c1ccc(Cl)cc1)c1cncc(Br)c1 [1-(4-Chlorophenyl)-1H-pyrazolo[3,4-c]pyridine-4-carboxylic acid [(S)-1-(5-bromopyridin-3-yl)-propyl]-amide] | 0.6 |
| C[C@H](NC(=O)c1cncc2c1cnn2-c1ccc(Cl)cc1)c1cncc(S(C)(=O)=O)c1 [1-(4-Chlorophenyl)-1H-pyrazolo[3,4-c]pyridine-4-carboxylic acid [(S)-1-(5-methanesulfonyl-pyridin-3-yl)-ethyl]-amide] | 4 |
| CC[C@H](NC(=O)c1cncc2c1cnn2-c1ccc(Cl)cc1)c1cncc(S(C)(=O)=O)c1 [1-(4-Chlorophenyl)-1H-pyrazolo[3,4-c]pyridine-4-carboxylic acid [(S)-1-(5-methanesulfonyl-pyridin-3-yl)-propyl]-amide] | 0.4 |
| COCCN(c1ccc(CNC(=O)c2cncc3c2cnn3-c2ccc(Cl)cc2)cn1)S(C)(=O)=O [1-(4-Chlorophenyl)-1H-pyrazolo[3,4-c]pyridine-4-carboxylic acid {6-[methanesulfonyl-(2-methoxy-ethyl)-amino]-pyridin-3-ylmethyl}-amide] | 5 |
| CNS(=O)(=O)c1ccc(CNC(=O)c2cncc3c2cnn3-c2ccc(F)cc2)c(Cl)c1 [1-(4-Fluorophenyl)-1H-pyrazolo[3,4-c]pyridine-4-carboxylic acid 2-chloro-4-methylsulfamoyl-benzylamide] | 0.2 |
| O=C(NCc1cc(C(F)(F)F)cc(C(F)(F)F)c1)c1cncc2c1cnn2-c1ccc(F)cc1 [1-(4-Fluorophenyl)-1H-pyrazolo[3,4-c]pyridine-4-carboxylic acid 3,5-bis-trifluoromethyl-benzylamide] | 3 |
| O=C(NCc1cc(Cl)cc(Cl)c1)c1cncc2c1cnn2-c1ccc(F)cc1 [1-(4-Fluorophenyl)-1H-pyrazolo[3,4-c]pyridine-4-carboxylic acid 3,5-dichloro-benzylamide] | 7 |
| CNS(=O)(=O)c1ccc(CNC(=O)c2cncc3c2cnn3-c2ccc(F)cc2)cc1F [1-(4-Fluorophenyl)-1H-pyrazolo[3,4-c]pyridine-4-carboxylic acid 3-fluoro-4-methylsulfamoyl-benzylamide] | 1 |
| CS(=O)(=O)c1ccc(CNC(=O)c2cncc3c2cnn3-c2ccc(F)cc2)cc1O [1-(4-Fluorophenyl)-1H-pyrazolo[3,4-c]pyridine-4-carboxylic acid 3-hydroxy-4-methanesulfonyl-benzylamide] | 24 |
| CNS(=O)(=O)c1ccc(CNC(=O)c2cncc3c2cnn3-c2ccc(F)cc2)cc1OC [1-(4-Fluorophenyl)-1H-pyrazolo[3,4-c]pyridine-4-carboxylic acid 3-methoxy-4-methylsulfamoyl-benzylamide] | 3 |
| CC(C)(CO)NS(=O)(=O)c1ccc(CNC(=O)c2cncc3c2cnn3-c2ccc(F)cc2)cc1 [1-(4-Fluorophenyl)-1H-pyrazolo[3,4-c]pyridine-4-carboxylic acid 4-(2-hydroxy-1,1-dimethyl-ethylsulfamoyl)-benzylamide] | 0.9 |
| CC(CO)NS(=O)(=O)c1ccc(CNC(=O)c2cncc3c2cnn3-c2ccc(F)cc2)cc1 (centres unmarked) [1-(4-Fluorophenyl)-1H-pyrazolo[3,4-c]pyridine-4-carboxylic acid 4-(2-hydroxy-1-methyl-ethylsulfamoyl)-benzylamide] | 2 |
| O=C(NCc1ccc(S(=O)(=O)NCCO)cc1)c1cncc2c1cnn2-c1ccc(F)cc1 [1-(4-Fluorophenyl)-1H-pyrazolo[3,4-c]pyridine-4-carboxylic acid 4-(2-hydroxy-ethylsulfamoyl)-benzylamide] | 1 |
| CC(O)CNS(=O)(=O)c1ccc(CNC(=O)c2cncc3c2cnn3-c2ccc(F)cc2)cc1 (centres unmarked) [1-(4-Fluorophenyl)-1H-pyrazolo[3,4-c]pyridine-4-carboxylic acid 4-(2-hydroxy-propylsulfamoyl)-benzylamide] | 2 |
| O=C(NCc1ccc(S(=O)(=O)N2CCC(O)C2)cc1)c1cncc2c1cnn2-c1ccc(F)cc1 (centres unmarked) [1-(4-Fluorophenyl)-1H-pyrazolo[3,4-c]pyridine-4-carboxylic acid 4-(3-hydroxy-pyrrolidine-1-sulfonyl)-benzylamide] | 0.9 |
| O=C1CN(S(=O)(=O)c2ccc(CNC(=O)c3cncc4c3cnn4-c3ccc(F)cc3)cc2)CCN1 [1-(4-Fluorophenyl)-1H-pyrazolo[3,4-c]pyridine-4-carboxylic acid 4-(3-oxo-piperazine-1-sulfonyl)-benzylamide] | 3 |

— patent US8063065B2, “Azaindazole compounds as CCR1 receptor antagonists” (Boehringer Ingelheim International GmbH, priority 2008, dated 2011)
